Results as given in patent US20070112057A1, “Polymorphic forms of tegaserod maleate” (priority 2005, published 2007).

Legend:
[1] = Water absorption (hygroscopicity) test under 80% relative humidity; format: physicochemical; conditions: room temperature, 37 days
[2] = Weight loss measured by TGA; format: physicochemical; conditions: range of about 25° C. to about 200° C.
Procedure: Form Z has a weight loss of about 0.1% by weight at the range of about 25° C. to about 200° C., as measured by TGA.

[3] = cited from earlier work

Question: With CCCCCNC(=N)N/N=C/c1c[nH]c2ccc(OC)cc12.O=C(O)/C=C\C(=O)O [Form Z, tegaserod maleate] as the molecule, how does the “hygroscopicity (water absorption)” value [1] read?
Answer: non hygroscopic

Question: And the “weight loss as measured by TGA” value [2]?
Answer: about 0.1 % by weight

Question: For CCCCCNC(=N)N/N=C/c1c[nH]c2ccc(OC)cc12.O=C(O)/C=C\C(=O)O [Tegaserod maleate, 3-(5-methoxy-1H-indole-3-ylmethylene)-N-pentylcarbazimidamide hydrogen maleate], which solubility in ethanol ([3]; ethanol) is on record?
Answer: slightly soluble

Question: And the solubility in water ([3]; water)?
Answer: very slightly soluble
